The values that follow come from US20230203081A1, “LINCOSAMIDE ANTIBIOTICS AND USES THEREOF” (President and Fellows of Harvard College, priority 2020, published 2023).

Data set [1] deals with S. aureus MMX USA 300; MRSA. The experiment in a line: MIC (broth microdilution or agar dilution, CLSI). The class given is cell-based. Conditions: Staphylococcus aureus. The procedure, abridged: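 MICs follow CLSI broth microdilution or agar dilution, testing typically 128-0.06 μg/mL compound at 2.5% final DMSO, in triplicate with clindamycin comparator. Non-anaerobic strains use CaMHB at a final inoculum of 5×10^5 CFU/mL; anaerobes like C. difficile and C. scindens use specialized procedures.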
On the technique in general: In broth dilution the organism is exposed to a series of concentrations in liquid medium.

The test system of data set [2] is susceptible S. aureus and E. faecium strains. The experiment in a line: Time-kill studies. The class given is cell-based. As for the experimental part:
. Experiments were performed in duplicate following CLSI guidelines. An inoculum was prepared in Mueller-Hinton broth (MHB) containing 0.5-5×10^6 CFU/mL of test organism. Cultures were incubated at 37° C. in a shaker incubator at 110 rpm; a flask containing bacteria left unexposed to antibiotic was used as untreated control. At time points 0, 1, 3, 6, and 24 h following administration of antibiotic, bacterial counts were determined from each flask by serial dilution and plating on brain heart infusion agar (BD, Sparks, M D). Plates were incubated at 37° C. in incubators for 18-24 hours to determine bacterial counts. For streptococcal strains, blood agar plates (Tryptic Soy Agar with 5% Sheep Blood) were used for culturing the organisms (plates were incubated in the presence of 5% CO2), and time-kill studies were performed in media supplemented with 5% laked horse blood.

A short description of data set [3]: Mouse pharmacokinetics i.v. and p.o. More on the design: species or system mice. Conditions: in vivo, 60 mg/kg.
In another data set the test system is A. baumanii ATCC 19606. The experiment in a line: Murine neutropenic thigh infection model. Conditions: neutropenic mouse thigh, A. baumanii ATCC 19606 (FIG. 4C). The class given is in vivo, mice.
Data set [4] in a line: Plasma protein binding, species m. Particulars: mouse. Type of data set: in vitro ADME.
In data set [5] the test system is methicillin-resistant Staphylococcus aureus (MRSA). The experiment in a line: MIC, panel of clinically derived MRSA strains. The class given is cell-based. Conditions: result in words. Here is the method:
Minimum inhibitory concentrations (MICs) were determined by broth microdilution method or agar dilution method following the Clinical and Laboratory Standards Institute guidelines. Standard bacterial strains were obtained from American Type Culture Collection (ATCC). Other bacterial strains were obtained from hospitals and commercial sources, so noted in Table 11. Before the start of the MIC experiment, standard and test compound stock solutions were prepared in dimethyl sulfoxide (DMSO, Aldrich D2650) at a stock concentration of 5,120 μg/mL. The compound concentration range typically employed for each experiment was 128-0.06 μg/mL (2.5% final DMSO concentration). Clindamycin was used as a comparator in all experiments and each experiment was performed in triplicate. Specialized procedures were employed for streptococcal and anaerobic strains. All other bacterial strains were sub-cultured on blood agar plates (tryptic soy agar with 5% sheep blood, Hardy Diagnostics) and incubated overnight at 35° C. Organisms were suspended in cation-adjusted Mueller-Hinton broth (CaMHB, BD 212322) and optical density was adjusted to 0.5 McFarland standard. Suspensions were further diluted to obtain a final inoculum of 5×10^5 CFU/mL for broth microdilution experiments.

A further data set has as its system ribosome. The experiment in a line: Toeprinting analysis (primer extension inhibition) in cell-free translation, ermBL and ermDL templates. The class given is biochemical. Particulars: 50 μM. Here is the method: Toeprinting analysis: The ermBL DNA template for toeprinting was generated by a 4-primer cross-over PCR using primers T7, NV1, ermB3-F and ermB3-R. The ermDL template was generated in the same way using primers RLR-fwd, RLR-rev, T7-SD-fwd and T7-SD-rev. In vitro translation in the PURExpress system (New England Biolabs) and toeprinting analysis were carried out as described previously. […]
Primer sequences used for toeprinting are as follows: T7 (TAATACGACTCACTATAGGG); NV1 (GGTTATAATGAATTTTGCTTATTAAC); ermB3-F (TAATACGACTCACTATAGGGCTTAAGTATAAGGAGGAAAAAATATGTTGGTATTCCAAATGCGTAATGTAGATAAAACATCTAC); ermB3-R (GGTTATAATGAATTTTGCTTATTAACGATAGAATTCTATCACTTATTTCAAAATAGTAGATGTTTTATCTACATTACG); RLR-fwd (GGAGGAAAAAATATGACACACTCAATGAGACTTCGTATTTTCCC); RLR-rev (CTATCACTTACAAAGTTGGGAAAATACGAAGTCTCATTGAG); T7-SD-fwd (TAATACGACTCACTATAGGGCTTAAGTATAAGGAGGAAAAAATATGACACACTCAATG); T7-SD-rev (GGTTATAATGAATTTTGCTTATTAACGATAGAATTCTATCACTTACAAAGTTGGGAAAAT).

Another data set deals with human erythrocytes. The data set is described as follows: Hemolysis of human erythrocytes relative to Triton X-100. Type of data set: cell-based. Conditions: result in words.
Data set [6] deals with susceptible S. aureus and E. faecium strains. The data set is described as follows: Post-antibiotic effect (PAE) and post-antibiotic sub-MIC effect (PA-SME). Type of data set: cell-based. Particulars: following brief exposure; result in words. Here is the method: Post-antibiotic and post-antibiotic sub-MIC effect: Measurements of PAE and PA-SME durations were performed according to the methods described by Odenholt-Tornqvist and co-workers. […] A flask containing the unexposed bacterial strain was left as untreated control. Post-exposure, 100 μL of bacterial culture was diluted in 900 μL of sterile CaMHB; 100 μL of this diluted sample was immediately diluted further in 19.9 mL of sterile CaMHB (1:2,000 final dilution). […] Flasks were incubated at 37° C. in a shaker incubator (110 rpm). Samples (100 μL from each flask per time point) were collected at 0, 1, 3, 6, and 24 h from each flask and were serially diluted. From each dilution, 100 μL and 10 μL from each dilution were plated in duplicate on TSA plates. Plates were incubated overnight at 35° C. to determine the bacterial counts (limit of detection=20 CFU/plate or 2×10^2 CFU/mL). These counts were plotted against time with linear interpolation between time points to obtain the growth-kinetic curves. PAE and PA-SME were determined from these curves using the formulae: […]
where T is the time required for bacteria previously exposed to antibiotic to multiply 1 log10 above counts immediately following dilution, and C is the corresponding time required for untreated culture to do the same; and […]

Data set [7] is described as follows: Microsomal intrinsic clearance (Clint,mic), species h. The class given is in vitro ADME, human. More on the design: unit not given here.
Another data set concerns E. coli HAV504. The experiment in a line: Murine neutropenic thigh infection model. The class given is in vivo, mice. Particulars: neutropenic mouse thigh, E. coli HAV504 (FIG. 4C).

≈ marks a conversion by molar mass, not a printed value.

Compound `CCC[C@@H]1C[C@@H](C(=O)N[C@@H]([C@H]2O[C@H](SC)[C@H](O)[C@@H](O)[C@H]2O)[C@H](C)Cl)N(C)C1` [Clindamycin, clindamycin, reference compound] registered an MIC in data set [1] of 0.25 µg/mL (≈ 0.588 µM).

Turning to `CSC1O[C@H]([C@H](NC(=O)[C@H]2NC[C@@H]3C[C@H](CC(C)C)CCO[C@H]32)[C@H](C)Cl)C(O)[C@@H](O)[C@H]1O` (stereo partly shown) [FSA-513018b], in data set [2] (certain highly susceptible strains), the cidality in time-kill entry is “concentration-dependent cidality”. For the same compound, in [2] (result in words), the “mode of action in broth culture profiling (time-kill)” value was “bacteriostatic”. In data set [3] (iv), this compound showed an AUC of 6800 ± 1300 ng·h/mL, a Cmax of 7900 ± 3000 ng/mL, an MRT of 1.2 h and a clearance of 148 mL/min/kg. Moreover, in [3] (iv, read-out: Vss), the Vd stood at 12.5 ± 0.4 L/kg. In [3] (po), this compound gave an AUC of 1600 ± 400 ng·h/mL, a Cmax of 1600 ± 700 ng/mL and a bioavailability of 24%. In addition, the “efficacy in thigh infection model” value in the data set with A. baumanii ATCC 19606 was “effective”. In data set [4], the fraction unbound was 0.05. In addition, the “activity against a panel of clinically derived MRSA strains” value in data set [5] is reported as “uniformly high activity”. Besides, the “translation arrest at the start codons of model ORFs (toeprinting)” value in the data set with ribosome is on record as “firmly locked the ribosome at the start codons, allowing virtually no escape”. The hemolysis result with human erythrocytes was “non-hemolytic”. The “post-antibiotic effect on bacterial growth” value in data set [6] was “prolonged effects on bacterial growth”. Moreover, the “Clint,mic” value in data set [7] worked out at 34. In addition, the “efficacy in thigh infection model” value in the data set on E. coli HAV504 is given as “effective”.

The term MIC denotes the lowest concentration found to suppress growth. What is called AUC is concentration integrated over time. A word on the Cmax: it is the peak of the concentration-time curve. By MRT is commonly meant the average time that molecules of a dose stay in the body. As usually defined, the bioavailability is dose-corrected exposure relative to a reference, in per cent. One may read the fraction unbound as the share of the substance not bound to proteins or other matrix.
